The source of these data is paper PMC3387026, “Substrate Cooperativity in Marine Luciferases” (PLoS ONE, 2012).

Holding throughout (assay): bioluminescence (luminometer), light integrated over first […] s
Format in all cases: biochemical
Conditions in all cases: Tris-HCl pH 7.5, BSA; varied luciferin; O2 co-substrate

For assay [1], the target named is T1, GLuc (Gaussia princeps (in: crustaceans), UniProt Q9BLZ2).
T1 construct: amino-terminal His tag, expressed in E. coli SHuffle, nickel-purified

For assay [2], the target named is T2, GLuc (Gaussia princeps (in: crustaceans), UniProt Q9BLZ2, M60L/M127L).
T2 construct: amino-terminal His tag, expressed in E. coli SHuffle, nickel-purified

For assay [3], the target named is T3, RLuc (Renilla reniformis, UniProt P27652).
T3 construct: His-tagged, expressed in NEB T7 Express cells, nickel-purified; 37 kDa monomer
T3 sequence (P27652 1-311): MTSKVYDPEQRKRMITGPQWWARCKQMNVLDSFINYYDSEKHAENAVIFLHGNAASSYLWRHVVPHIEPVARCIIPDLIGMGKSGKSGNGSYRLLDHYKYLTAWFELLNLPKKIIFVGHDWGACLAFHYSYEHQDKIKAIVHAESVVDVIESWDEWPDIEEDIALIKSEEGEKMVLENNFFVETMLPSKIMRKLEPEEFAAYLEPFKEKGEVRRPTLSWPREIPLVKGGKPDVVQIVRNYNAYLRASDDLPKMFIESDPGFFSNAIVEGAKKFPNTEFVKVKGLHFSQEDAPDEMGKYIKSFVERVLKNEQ

T1 sequence (Q9BLZ2 entry or part of it): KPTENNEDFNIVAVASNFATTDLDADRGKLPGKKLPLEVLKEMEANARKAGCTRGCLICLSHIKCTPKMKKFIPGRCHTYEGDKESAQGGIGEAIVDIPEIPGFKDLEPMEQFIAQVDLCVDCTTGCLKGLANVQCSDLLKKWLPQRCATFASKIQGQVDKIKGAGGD
T2 sequence (Q9BLZ2 entry or part of it M60L/M127L): as the sequence (Q9BLZ2 entry or part of it) above, with M43L, M110L counted along it

Take `Oc1ccc(Cc2nc3c(Cc4ccccc4)nc(-c4ccc(O)cc4)cn3c2O)cc1` [coelenterazine]: the “bioluminescence (luminometer), light integrated over first 10 s” value was “positive cooperative response of the GLuc activity with respect to coelenterazine” in assay [1]; “GLuc, MLuc and the variant GLuc M43L/M110L of Welsh et al” in assay [2]; “binding a single molecule of coelenterazine is sufficient for catalysis” in assay [3].
